The values below come from publication PMC5897531, “Identification of an Alarm Pheromone-Binding Chemosensory Protein From the Invasive Sycamore Lace Bug Corythucha ciliata (Say)” (Frontiers in Physiology, 2018).

The target in test [1] is CcilCSP2 (Corythucha ciliata, UniProt A0A2S0M1B9). As to the kind of experiment: Fluorescence competitive binding assay with 1-NPN. As to the method: Briefly, the sequence of CcilCSP2 encoding the mature CSP protein was expressed in Escherichia coli BL21 (DE3) competent cells (Transgen). Cells were grown at 37°C until OD600 ≈ 0.60, when expression was induced with 1 mM IPTG. After incubating an additional 8 h at 28°C, cells were harvested by centrifugation. The purification of CcilCSP2 was performed using HisTrap affinity columns (GE Healthcare Biosciences, Uppsala, Sweden).
Sequence of CcilCSP2 (A0A2S0M1B9 entry or part of it): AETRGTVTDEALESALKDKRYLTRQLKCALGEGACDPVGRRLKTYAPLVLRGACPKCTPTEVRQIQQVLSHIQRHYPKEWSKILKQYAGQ

Test [2] relates to sycamore lace bug nymphs. As to the kind of experiment: Petri dish test, behavioral response of nymphs. The format is in vivo, Corythucha ciliata. As to conditions: for Chi-square value, choice of nymphs: compound vs. hexane, 20 μl on filter paper, 5 min; for behavioral response of nymphs: petri dish. How it is done:
One test was conducted in a petri dish (15 cm diameter) at 22–26°C. Two filter papers (3 cm diameter) were placed symmetrically on both sides of the petri dish. 20 μl of the compound to be tested (1, 0.1 or 0.01 μg/μl) was added to one filter paper. 20 μl hexane was added as a control to the other filter paper. The filter papers were placed at a distance of 5 cm from the start position at the center of the petri dish where 40 sycamore lace bug nymphs were released. The number of nymphs on each filter paper was recorded after 5 min. Each assay was replicated four times with a new petri dish for each replicate. The choice between hexane and a blank was also tested. […] The numbers of insect on each filter paper were compared using chi-square analysis.

Test [3] addresses T1, c18915_g1 (Corythucha ciliata, UniProt A0A2S0M1C0).
T1 construct: gene CSP8; full length 133 aa
T1 sequence (A0A2S0M1C0 22-133): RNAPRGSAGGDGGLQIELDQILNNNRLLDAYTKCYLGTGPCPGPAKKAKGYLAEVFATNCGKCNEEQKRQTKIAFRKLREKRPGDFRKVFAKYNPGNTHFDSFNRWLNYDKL
As to the kind of experiment: direct fluorescence titration. As to conditions: fluorescent probe; conditions presumably as for CcilCSP2. The test is classed as binding.

The subject of test [4] is sycamore lace bug adults. As to the kind of experiment: Y-shaped olfactometer, behavioral response of adults. The test is classed as in vivo, Corythucha ciliata. As to conditions: Y-tube; for χ2, choice of adults: P > 0.05; for behavioral response of adults: 1 and 0.1 μg/μl. As to the method: Compounds that potentially bind with high affinity to CSPs were purchased from Sigma (St Louis, MO, USA) to test their effects on sycamore lace bug behavior. The behavioral response of sycamore lace bug adults (1:1 sex ratio) was assessed using a Y-shaped olfactometer. The length of the arms and the diameter of the tube were 10 and 5 cm, respectively. The authentic standards were dissolved in hexane at concentrations of 1 and 0.1 μg/μl. Then 10 μl of solution was applied to a 1 cm^2 filter paper. The filter paper was placed in one arm of the Y-shaped olfactometer, and 10 μl hexane was placed in the other arm as a control. The amount of airflow was set at 250 ml/min. In each experiment, a single sycamore lace bug adult was released at the base of the olfactometer stem and observed for 10 min. During this time, insects not making any choice were recorded as having “no response”. Insects entering more than halfway into the olfactometer arm and staying for at least 10 s were recorded as having a “response”. After 10 insects were tested, the orientation of the Y-shaped olfactometer was reversed to avoid environmental effects, and the inner wall was cleaned with degreased cotton containing acetone, washed with ethanol, and then washed with distilled water and dried in an oven. The experiment was conducted in a behavioral observation chamber at 26°C. The experiment was repeated seven times, and each time the behavior of 10 insects was tested. The choice of insects between chemicals and hexane was compared using chi-square analysis.

The subject of test [5] is sycamore lace bug nymphs. As to the kind of experiment: Plant leaf test, repellency rate of nymphs. As to conditions: for behavioral response of nymphs: plant leaves. The format is in vivo, Corythucha ciliata. How it is done:
To further confirm the behavioral effects of each active substance, the behavioral response of sycamore lace bug nymphs was tested by directly applying the compounds to a P. × acerifolia leaf. […] Photographs were then taken at 0, 2, and 4 min to assess the repellency rate, which was calculated using the following formula: Repellency rate = M/T^*100, where T = the total number of sycamore lace bug nymphs in the tested colony at 0 min, and M = the number of sycamore lace bug nymphs that had moved at 2 or 4 min. Experimental conditions were the same as for the petri dish experiments. Hexane was used as the mock treatment. The repellency rates of the nymphs in each treatment were compared using a Kruskal Wallis H-test followed by Mann-Whitney U-tests.

The subject of test [6] is sycamore lace bug nymphs. As to the kind of experiment: Petri dish test, behavioral response of nymphs. The format is in vivo, Corythucha ciliata. As to conditions: Geraniol vs. Phenyl benzoate.

Read-outs that look alike come from different tables or passages of the source. Marks after values point to notes of the source that are not given here.

Broadly, the Kd is the constant that tells how readily two partners part at equilibrium. In turn, `c1ccc(Nc2cccc3ccccc23)cc1` [1-NPN, N-Phenyl-1-naphthylamine] displayed a Kd in test [1] of 2.08 µM.
Consider `c1ccc2ccccc2c1` [Naphthalene], for which the “Chi-square value, choice of nymphs” value stood at 0.243 in test [2] (0.01 μg/μl), 1.190 in test [2] (0.1 μg/μl) and 0.333 in test [2] (1 μg/μl).
Taken in the same sequence, the figures for `Cc1ccc(C(C)C)c(O)c1` [Thymol] were 0.400, 0.111 and 0.125.
For `c1ccc(Nc2cccc3ccccc23)cc1` [1-NPN], in test [3], the Kd result is listed as “Affinity of c18915_g1 for 1-NPN”.
With `O=C(Oc1ccccc1)c1ccccc1` [Phenyl benzoate], the “χ2, choice of adults” value in test [4] (0.1 μg/μl vs. hexane) was 0.083; in test [4] (1 μg/μl vs. hexane), 0.176. Further, the “behavioral response of adults” value in test [4] is listed as “not significant”. Besides, the figures for the “Chi-square value, choice of nymphs” value in test [2] (0.01 μg/μl), in test [2] (0.1 μg/μl) and in test [2] (1 μg/μl) were 0.615, 14.629^** and 5.818^*, respectively. For the same molecule, the entries for the “behavioral response of nymphs” value in test [2] and in test [5] were “significantly repelled” and “repellent effect of phenyl benzoate was further confirmed”, respectively. Further, the “Displacement of 1-NPN” value in test [1] (competitive binding) is reported as “more than 50%”. Also, the Kd in test [1] (competitive binding, 1-NPN as fluorescent reporter, calculated from IC50, read-out: KD) is 13.9 µM. Further, the repellency rate in test [5] (2 min, 0.01 μg/μl) was determined as 12%; in test [5] (2 min, 0.1 μg/μl) it was 50%^*; in test [5] (2 min, 1 μg/μl), 63.16%^*; in test [5] (4 min, 0.01 μg/μl), 13%; in test [5] (4 min, 0.1 μg/μl) it was 57.14%^*; in test [5] (4 min, 1 μg/μl), 73.68%^*.
In the case of `Cc1ccc(C(C)C)cc1` [p-Cymene], the results for the “Chi-square value, choice of nymphs” value in test [2] (0.01 μg/μl), in test [2] (0.1 μg/μl) and in test [2] (1 μg/μl) were 0.083, 0.026 and 0.048, respectively.
As to `CC(C)=CCC/C(C)=C/CO` [Geraniol, E-3,7-dimethyl-2,6-octadien-1-ol, reference compound], the “χ2, choice of adults” value in test [4] (0.1 μg/μl vs. hexane) stood at 1.52; in test [4] (1 μg/μl vs. hexane), 0.069. Besides, the “behavioral response of adults” value in test [4] is listed as “not significantly affected”. For the same molecule, the “Chi-square value, choice of nymphs” value in test [2] (0.01 μg/μl) is 5.444^a^*; in test [2] (0.1 μg/μl), 10.965^**; in test [2] (1 μg/μl), 13.928^**; in test [6] (0.01 μg/μl), 0.214; in test [6] (0.1 μg/μl) it was 0.267; in test [6] (1 μg/μl), 0.083. Besides, the “behavioral response of nymphs” value in test [2] and in test [5] was “significantly repelled” each time. The molecule also displayed a Kd in test [1] of 15.2 µM. Also, in test [1] (competitive binding), the “Displacement of 1-NPN” value was “more than 50%”. Also, the repellency rate in test [5] (2 min, 0.01 μg/μl) is 25%^*; in test [5] (2 min, 0.1 μg/μl), 50%^*; in test [5] (2 min, 1 μg/μl), 72.41%^*; in test [5] (4 min, 0.01 μg/μl), 25%^*; in test [5] (4 min, 0.1 μg/μl), 57.14%^*; in test [5] (4 min, 1 μg/μl) it was 79.41%^*.
